# According to patent US10287301B2 (Achillion Pharmaceuticals, Inc., priority 2015, dated 2019):
# Read-outs that look alike come from different tables or passages of the source.
# What was measured:
# [1] = test system: complement alternative pathway (CAP), hemolysis of rabbit erythrocytes (RE); assay: Combination therapy: hemolysis assay of two compounds; type: cell-based, human; conditions: combination with Complement Factor D inhibitor ("1"); 95% confidence limits; means ± standard deviations from two or three independent experiments
# Method: The combinatorial efficacy of two compounds on the complement alternative pathway (CAP) was assessed by determining the effect of two compounds mixed together at various concentrations with Normal Human Serum (NHS) on the hemolysis of rabbit erythrocytes (RE) or the production of terminal complement complex (TCC). In both assays the two test compounds were prepared individually in seven-point dilution series, with an eighth sample for each containing solvent alone, and each of the 64 possible combinations was tested in duplicate or triplicate wells.
# In the hemolysis assay, NHS (Complement Technology) diluted to 10% in GVB^0 Buffer (0.1% gelatin, 5 mM Veronal, 145 mM NaCl, 0.025% NaN3, pH 7.3, Complement Technology) plus 10 mM Mg-EGTA was incubated with the compounds at various concentrations for 15 minutes at 37° C. RE (Complement Technology) freshly suspended in GVB^0 plus 10 mM Mg-EGTA was added to a final concentration of 1×10^8 cells/mL and reactions were incubated for 30 minutes at 37° C. Positive control reactions consist of GVB^0 plus Mg-EGTA with NHS and RE but without test compounds; negative control reactions consist of GVB^0 plus Mg-EGTA with RE only. Samples were centrifuged at 2000 g for 3 minutes and supernatants collected. Absorbance at 405 nm (A405) was recorded using a microplate spectrophotometer.
# Combinatorial effects in both assays were analyzed using the three-dimensional surface-graphing method of Prichard, M. N. and C. Shipman, Jr., Antiviral Research 1990, 14: 181-205, wherein the X-axis and Y-axis indicate test compound concentrations and the Z-axis indicates the difference between measured inhibition and a theoretically determined additive inhibition. For an additive combinatorial relationship the surface graph will resemble a horizontal plane of zero height, whereas positive surface peaks indicate greater inhibition than expected and therefore synergy, and negative surface peaks indicate less inhibition than expected and therefore antagonism.
# Synergy and antagonism volumes are the summed volumes of peaks respectively above and below the Z=0 plane on the surface graph. Volumes are determined using 95% confidence limits to assure significance. Compounds are considered additive for volumes between −25 and 25. Compounds are considered slightly synergistic for volumes between 25 and 50, moderately synergistic for volumes between 50 and 100, and strongly synergistic for volumes greater than 100. Compounds are considered slightly antagonistic for volumes between −25 and −50, moderately antagonistic for volumes between −50 and −100, and strongly antagonistic for volumes less than −100. Results are presented as means±standard deviations from two or three independent experiments.
# Human Factor D = Human Factor D (Homo sapiens (Human), UniProt P00746); assay: Human Factor D Assay; type: biochemical
# Human Factor D, sequence (P00746 26-253): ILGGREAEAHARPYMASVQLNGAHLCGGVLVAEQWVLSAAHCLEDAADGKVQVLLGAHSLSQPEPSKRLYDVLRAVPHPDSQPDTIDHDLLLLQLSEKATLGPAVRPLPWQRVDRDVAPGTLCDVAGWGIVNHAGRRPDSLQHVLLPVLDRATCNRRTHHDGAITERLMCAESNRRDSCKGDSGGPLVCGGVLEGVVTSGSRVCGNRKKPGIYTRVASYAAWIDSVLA
# Summary of the method: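 Factor D (from human serum) 80 nM final + cpd, 5 min RT, 50 mM Tris/1M NaCl pH 7.5; add Z-L-Lys-SBzl 100 μM and DTNB 100 μM final. IC50 by nonlinear fit of rates vs [cpd].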
# [2] = Human Factor D, Table 3, read-out: IC50
SMILES,IC50 (Human Factor D; [2]) [nM],other results
CCN[C@H](CC(=O)N1CCN(c2nc(N)c3cc(OC)c(OC)c(F)c3n2)CC1)c1ccc(F)cc1 [Complement Factor B inhibitor],,Antagonism Volume [1]: −18 ± 10 μM^2 · % inhibition; Synergy Volume [1]: 157 ± 99 μM^2 · % inhibition
"CC(=O)c1ccc(Cl)c(-c2cccc(NC(=O)[C@@H]3C[C@H]4C[C@H]4N3C(=O)Cn3nc(C(N)=O)c4sc(-c5cnc6cc(C)nn6c5)nc43)c2F)c1 [Compound 716, 1-(2-((1R,3S,5R)-3-(5′-Acetyl-2′-chloro-2-fluorobiphenyl-3-ylcarbamoyl)-2-azabicyclo[3.1.0]hexan-2-yl)-2-oxoethyl)-5-(2-methylpyrazolo[1,5-a]pyrimidin-6-yl)-1H-pyrazolo[3,4-d]thiazole-3-carboxamide]",< 1000,
"CC(=O)c1ccc(Cl)c(-c2cccc(NC(=O)[C@@H]3C[C@H]4C[C@H]4N3C(=O)Cn3nc(C(N)=O)c4sc(-c5cnc(C)nc5)nc43)c2F)c1 [Compound 717, 1-(2-((1R,3S,5R)-3-(5′-Acetyl-2′-chloro-2-fluorobiphenyl-3-ylcarbamoyl)-2-azabicyclo[3.1.0]hexan-2-yl)-2-oxoethyl)-5-(2-methylpyrimidin-5-yl)-1H-pyrazolo[3,4-d]thiazole-3-carboxamide]",< 1000,
"CC(=O)c1nn(CC(=O)N2C[C@H](F)C[C@H]2C(=O)Nc2cccc(Br)n2)c2cc(C(=O)N(C)C)c(-c3cnc(C)nc3)cc12 [Compound 722, 3-Acetyl-1-(2-((2S,4R)-2-((6-bromopyridin-2-yl)carbamoyl)-4-fluoropyrrolidin-1-yl)-2-oxoethyl)-N,N-dimethyl-5-(2-methylpyrimidin-5-yl)-1H-indazole-6-carboxamide]",< 1000,
"CNc1ncc2cc(-c3cn(CC(=O)N4C[C@H](F)C[C@H]4C(=O)Nc4cccc(Br)n4)nc3C(N)=O)ccc2n1 [Compound 723, 1-(2-((2S,4R)-2-((6-Bromopyridin-2-yl)carbamoyl)-4-fluoropyrrolidin-1-yl)-2-oxoethyl)-4-(2-(methylamino)quinazolin-6-yl)-1H-pyrazole-3-carboxamide]",> 10000,
"NC(=O)c1nn(CC(=O)N2C[C@H](F)C[C@H]2C(=O)Nc2cccc(Br)n2)cc1-c1cnn(C2CC2)c1 [Compound 726, 1-(2-((2S,4R)-2-((6-Bromopyridin-2-yl)carbamoyl)-4-fluoropyrrolidin-1-yl)-2-oxoethyl)-1′-cyclopropyl-1H,1′H-[4,4′-bipyrazole]-3-carboxamide]",> 10000,
"CC(=O)N1CC=C(c2cn(CC(=O)N3C[C@H](F)C[C@H]3C(=O)Nc3cccc(Br)n3)nc2C(N)=O)CC1 [Compound 727, 4-(1-acetyl-1,2,3,6-Tetrahydropyridin-4-yl)-1-(2-((2S,4R)-2-((6-bromopyridin-2-yl)carbamoyl)-4-fluoropyrrolidin-1-yl)-2-oxoethyl)-1H-pyrazole-3-carboxamide]",> 10000,
"NC(=O)c1nn(CC(=O)N2C[C@H](F)C[C@H]2C(=O)Nc2cccc(Br)n2)cc1-c1cnn(-c2ncc(F)cn2)c1 [Compound 729, 1-(2-((2S,4R)-2-((6-Bromopyridin-2-yl)carbamoyl)-4-fluoropyrrolidin-1-yl)-2-oxoethyl)-1′-(5-fluoropyrimidin-2-yl)-1H,1′H-[4,4′-bipyrazole]-3-carboxamide]",> 10000,
"CC(=O)c1nn(CC(=O)N2[C@H](C)CC[C@H]2C(=O)Nc2nc(Br)ccc2C)c2ccc(-c3cnc(C)nc3)cc12 [Compound 731, (2S,5R)-1-(2-(3-Acetyl-5-(2-methylpyrimidin-5-yl)-1H-indazol-1-yl)acetyl)-N-(6-bromo-3-methylpyridin-2-yl)-5-methylpyrrolidine-2-carboxamide]",< 1000,
"CC(=O)c1nn(CC(=O)N2C[C@H](F)C[C@H]2C(=O)NC2(C#N)CC2)c2ccc(-c3cnc(C)nc3)cc12 [Compound 739, (2S,4R)-1-(2-(3-acetyl-5-(2-methylpyrimidin-5-yl)-1H-indazol-1-yl)acetyl)-N-(1-cyanocyclopropyl)-4-fluoropyrrolidine-2-carboxamide]",< 1000,
"CC(=O)c1nn(CC(=O)N2C[C@H](F)C[C@H]2C(=O)Nc2cccc(Br)n2)c2ccc(-c3cnc(N)[n+]([O-])c3)cc12 [Compound 741, 5-(3-acetyl-1-(2-((2S,4R)-2-((6-Bromopyridin-2-yl)carbamoyl)-4-fluoropyrrolidin-1-yl)-2-oxoethyl)-1H-indazol-5-yl)-2-aminopyrimidine 1-oxide]",< 1000,
"CC(=O)c1nn(CC(=O)N2C[C@H](F)C[C@H]2C(=O)Nc2cccc(Br)n2)c2ccc(-c3cnc(C)[n+]([O-])c3)cc12 [Compound 742, 5-(3-Acetyl-1-(2-((2S,4R)-2-((6-bromopyridin-2-yl)carbamoyl)-4-fluoropyrrolidin-1-yl)-2-oxoethyl)-1H-indazol-5-yl)-2-methylpyrimidine 1-oxide]",< 1000,
"CC(=O)c1nn(CC(=O)N2C[C@H](F)C[C@H]2C(=O)Nc2cccc(Br)[n+]2[O-])c2ccc(-c3cnc(C)nc3)cc12 [Compound 743, 2-((2S,4R)-1-(2-(3-Acetyl-5-(2-methylpyrimidin-5-yl)-1H-indazol-1-yl)acetyl)-4-fluoropyrrolidine-2-carboxamido)-6-bromopyridine 1-oxide]",,IC50 (Human Factor D): 1000 to 10000 nM
"CC(=O)c1nn(CC(=O)N2C[C@H](F)C[C@H]2C(=O)Nc2cccc(Br)[n+]2[O-])c2ccc(-c3cnc(C)[n+]([O-])c3)cc12 [Compound 744, 5-(3-Acetyl-1-(2-((2S,4R)-2-((6-bromo-1-oxidopyridin-2-yl)carbamoyl)-4-fluoropyrrolidin-1-yl)-2-oxoethyl)-1H-indazol-5-yl)-2-methylpyrimidine 1-oxide]",,IC50 (Human Factor D): 1000 to 10000 nM
"CC(=O)c1nn(CC(=O)N2C[C@H](F)C[C@H]2C(=O)Nc2cccc(-c3cc(S(=O)(=O)NC4CC4)ccc3Cl)c2F)c2ccc(-c3cnc(C)nc3)cc12 [Compound 745, (2S,4R)-1-(2-(3-Acetyl-5-(2-methylpyrimidin-5-yl)-1H-indazol-1-yl)acetyl)-N-(2′-chloro-5′-(N-cyclopropylsulfamoyl)-2-fluoro-[1,1′-biphenyl]-3-yl)-4-fluoropyrrolidine-2-carboxamide]",< 1000,
"CC(=O)c1nn(CC(=O)N2CCOC[C@@H]2C(=O)Nc2cccc(Br)n2)c2ccc(-c3cnc(C)nc3)cc12 [Compound 748, (R)-4-(2-(3-acetyl-5-(2-methylpyrimidin-5-yl)-1H-indazol-1-yl)acetyl)-N-(6-bromopyridin-2-yl)morpholine-3-carboxamide]",< 1000,
"CC(=O)c1nn(CC(=O)N2CCOC[C@H]2C(=O)Nc2cccc(Br)n2)c2ccc(-c3cnc(C)nc3)cc12 [Compound 749, (S)-4-(2-(3-acetyl-5-(2-methylpyrimidin-5-yl)-1H-indazol-1-yl)acetyl)-N-(6-bromopyridin-2-yl)morpholine-3-carboxamide]",< 1000,
"CC(=O)c1nn(CC(=O)N2C[C@H](F)C[C@H]2C(=O)Nc2cccc(S(=O)(=O)C(F)(F)F)c2)c2ccc(-c3cnc4cc(C)nn4c3)cc12 [Compound 752, (2S,4R)-1-(2-(3-acetyl-5-(2-methylpyrazolo[1,5-a]pyrimidin-6-yl)-1H-indazol-1-yl)acetyl)-4-fluoro-N-(3-((trifluoromethyl)sulfonyl)phenyl) pyrrolidine-2-carboxamide]",< 1000,
CC[C@H](C)[C@H](N)C(=O)N[C@H]1CSSC[C@@H](C(=O)N[C@H](C(N)=O)[C@@H](C)O)NC(=O)[C@H](CCCN=C(N)N)NC(=O)[C@H](Cc2cnc[nH]2)NC(=O)[C@H](Cc2cnc[nH]2)NC(=O)CNC(=O)[C@H](Cc2c[nH]c3ccccc23)NC(=O)[C@H](CC(=O)O)NC(=O)[C@H](CCC(N)=O)NC(=O)[C@H](C(C)C)NC(=O)[C@H](C(C)C)NC1=O [Compstatin],,Antagonism Volume [1]: −17 ± 15 μM^2 · % inhibition; Synergy Volume [1]: 244 ± 104 μM^2 · % inhibition
N=C(N)c1ccc2cc(OC(=O)c3ccc(N=C(N)N)cc3)ccc2c1 [FUT-175],,Antagonism Volume [1]: −59 ± 11 μM^2 · % inhibition; Synergy Volume [1]: 95 ± 37 μM^2 · % inhibition
